According to US12083115B2, “Methods for treating neurological symptoms associated with lysosomal storage diseases” (Genzyme Corporation, priority 2020, dated 2024):
Like-named read-outs stand apart in the source and are kept apart here.

Assays:
[1] = test system: adult patients with Gaucher disease Type 3; assay: Clinical study in GD-3 patients: ataxia, SARA scale; type: in vivo, human; set-up: key to SARA Cumulative Score, Average Score excluding Patient 4 / SARA Cumulative Score: SARA, eight ataxia attributes summed, 0-40 scale; key to mean improvement in SARA score: change in SARA score (0-40 scale)
Method: The endpoint assessments are related to safety, CSF biomarkers, pharmacokinetics/pharmacodynamics, systemic disease, and neuroimaging and neurological function (CNS/neurological manifestations).
During the study patients were evaluated for safety and tolerability, CSF and plasma biomarkers (glucosylceramide, GL-1; glucosylsphingosine, lyso-GL1), pharmacokinetics, markers for systemic disease (spleen and liver volume measured by magnetic resonance imaging (MRI), platelet count, hemoglobin levels), indicia of interstitial lung disease (high resolution pulmonary computed tomography (CT)), and horizontal saccadic eye movement. In addition, exploratory biomarkers were quantified in CSF of GD3 patients: ceramide (the precursor of GL-1), chitotriosidase (CHITO), GM3, and GPNMB. Symptoms of ataxia were measured using the SARA scale, neurological symptoms were measured using the trail making test, and functional MRI was used to assess neural connectivity in the brain.
The degree of ataxia at baseline and throughout the study was evaluated by the Scale for Assessment and Rating of Ataxia (SARA; Schmitz-Hubsch et al. [2006]), which assesses eight distinct attributes of cerebellar ataxia on a scale of 0-40. The eight attributes are gait, stance, sitting, speech disturbance, finger chase, nose-finger test, fast alternate hand movement, and heel-shin slide. SARA ataxia scoring results for all six patients is presented in the chart below: […]

[2] = Study 1 Part 1: ascending single-dose PK in healthy men; type: in vivo, human; settings: for Tmax / AUC(0-inf) / AUC(0-t) / Cmax / Vd/F / half-life: male, human, plasma, oral; for Tmax: N = 6, read-out: tmax, median
Description: Study 1 was a 2-part single-center trial in healthy adult male volunteers.
Part 1 of the study enrolled and randomized 55 healthy men (placebo, n=14; 2-, 5-, 15, 25-, 50, and 100-mg doses, n=6 each; 150-mg dose, n=5). Eight healthy men participated in Part 2. […]

**Q.** Which results are given for `CC(C)(NC(=O)O[C@@H]1CN2CCC1CC2)c1csc(-c2ccc(F)cc2)n1` [Compound 2, (S)-quinuclidin-3-yl 2-(2-(4-fluorophenyl)thiazol-4-yl)propan-2-ylcarbamate]?
**A.** mean SARA Score ([1]; Excluding Patient 4, by Week 26, further slightly improved by Week 52): significantly decreased; SARA Cumulative Score ([1]; Patient 1, Week 52, screening 3.0, 15 mg/day + imiglucerase): 0.0; SARA Cumulative Score ([1]; Patient 4, Week 52, screening 3.0, 15 mg/day + imiglucerase): 4.5; SARA Cumulative Score ([1]; Patient 5 (low Compound 2 exposure), Week 26, screening 0.5): 0.0; SARA Cumulative Score ([1]; Patient 5 (low Compound 2 exposure), Week 52, screening 0.5): 0.0; mean improvement in SARA score ([1]; Week 52, Excluding Patient 5 (SD=3.2)): −0.9; SARA Cumulative Score, Average Score excluding Patient 4 ([1]; Week 52, screening 2.80): 0.90; CL/F, Geometric mean (CV) ([2]; 2 mg single dose, N = 6): 6.3 (22.0) L/h; CL/F, Geometric mean (CV) ([2]; 5 mg single dose, N = 6): 5.8 (17.3) L/h; CL/F, Geometric mean (CV) ([2]; 15 mg single dose, N = 6): 5.6 (32.2) L/h; CL/F, Geometric mean (CV) ([2]; 25 mg single dose, N = 6): 5.0 (25.3) L/h; tmax, median ([2]; 25 mg single dose, N = 6): 5.00 h; CL/F, Geometric mean (CV) ([2]; 50 mg single dose, N = 6): 5.5 (34.9) L/h; CL/F, Geometric mean (CV) ([2]; 100 mg single dose, N = 6): 5.3 (23.4) L/h; tmax, median ([2]; 100 mg single dose, N = 6): 3.00 h; CL/F, Geometric mean (CV) ([2]; 150 mg single dose, N = 5): 5.6 (26.7) L/h; Tmax ([2]; 2 mg single dose): 3.5 h; AUC(0-inf) ([2]; 2 mg, 2 mg single dose, N = 6, read-out: AUCinf, Geometric mean (CV)): 237 ng·h/mL; AUC(0-inf) ([2]; 2 mg, 2 mg single dose, N = 6, read-out: AUCinf, Mean (SD)): 243 ng·h/mL; AUC(0-t) ([2]; 2 mg, 2 mg single dose, N = 6, read-out: AUClast, Geometric mean (CV)): 209 ng·h/mL; AUC(0-t) ([2]; 2 mg, 2 mg single dose, N = 6, read-out: AUClast, Mean (SD)): 214 ng·h/mL; Cmax ([2]; 2 mg, 2 mg single dose, N = 6, read-out: Cmax, Geometric mean (CV)): 5.6 ng/mL; Cmax ([2]; 2 mg, 2 mg single dose, N = 6, read-out: Cmax, Mean (SD)): 5.7 ng/mL; Vd/F ([2]; 2 mg, 2 mg single dose, N = 6, read-out: Vss/F, Geometric mean (CV)): 270 L; Vd/F ([2]; 2 mg, 2 mg single dose, N = 6, read-out: Vss/F, Mean (SD)): 275 L; half-life ([2]; 2 mg, 2 mg single dose, N = 6, read-out: t1/2, Geometric mean (CV) (converted)): 28.9 h; half-life ([2]; 2 mg, 2 mg single dose, N = 6, read-out: t1/2, Mean (SD) (converted)): 29.2 h; Tmax ([2]; 5 mg single dose): 5.5 h; AUC(0-inf) ([2]; 5 mg, 5 mg single dose, N = 6, read-out: AUCinf, Geometric mean (CV)): 643 ng·h/mL; AUC(0-inf) ([2]; 5 mg, 5 mg single dose, N = 6, read-out: AUCinf, Mean (SD)): 652 ng·h/mL; AUC(0-t) ([2]; 5 mg, 5 mg single dose, N = 6, read-out: AUClast, Geometric mean (CV)): 556 ng·h/mL; AUC(0-t) ([2]; 5 mg, 5 mg single dose, N = 6, read-out: AUClast, Mean (SD)): 560 ng·h/mL; Cmax ([2]; 5 mg, 5 mg single dose, N = 6, read-out: Cmax, Geometric mean (CV)): 14.6 ng/mL; Cmax ([2]; 5 mg, 5 mg single dose, N = 6, read-out: Cmax, Mean (SD)): 14.7 ng/mL; Vd/F ([2]; 5 mg, 5 mg single dose, N = 6, read-out: Vss/F, Geometric mean (CV)): 273 L; Vd/F ([2]; 5 mg, 5 mg single dose, N = 6, read-out: Vss/F, Mean (SD)): 274 L; half-life ([2]; 5 mg, 5 mg single dose, N = 6, read-out: t1/2, Geometric mean (CV) (converted)): 32.5 h; half-life ([2]; 5 mg, 5 mg single dose, N = 6, read-out: t1/2, Mean (SD) (converted)): 33.3 h; Tmax ([2]; 15 mg single dose): 3.5 h; AUC(0-inf) ([2]; 15 mg, 15 mg single dose, N = 6, read-out: AUCinf, Geometric mean (CV)): 1990 ng·h/mL; AUC(0-inf) ([2]; 15 mg, 15 mg single dose, N = 6, read-out: AUCinf, Mean (SD)): 2070 ng·h/mL; AUC(0-t) ([2]; 15 mg, 15 mg single dose, N = 6, read-out: AUClast, Geometric mean (CV)): 1760 ng·h/mL; AUC(0-t) ([2]; 15 mg, 15 mg single dose, N = 6, read-out: AUClast, Mean (SD)): 1830 ng·h/mL; Cmax ([2]; 15 mg, 15 mg single dose, N = 6, read-out: Cmax, Geometric mean (CV)): 50.7 ng/mL; Cmax ([2]; 15 mg, 15 mg single dose, N = 6, read-out: Cmax, Mean (SD)): 53 ng/mL; Vd/F ([2]; 15 mg, 15 mg single dose, N = 6, read-out: Vss/F, Geometric mean (CV)): 233 L; Vd/F ([2]; 15 mg, 15 mg single dose, N = 6, read-out: Vss/F, Mean (SD)): 245 L; half-life ([2]; 15 mg, 15 mg single dose, N = 6, read-out: t1/2, Geometric mean (CV) (converted)): 29 h; half-life ([2]; 15 mg, 15 mg single dose, N = 6, read-out: t1/2, Mean (SD) (converted)): 29.7 h; AUC(0-inf) ([2]; 25 mg, 25 mg single dose, N = 6, read-out: AUCinf, Geometric mean (CV)): 3690 ng·h/mL; AUC(0-inf) ([2]; 25 mg, 25 mg single dose, N = 6, read-out: AUCinf, Mean (SD)): 3810 ng·h/mL; AUC(0-t) ([2]; 25 mg, 25 mg single dose, N = 6, read-out: AUClast, Geometric mean (CV)): 3240 ng·h/mL; AUC(0-t) ([2]; 25 mg, 25 mg single dose, N = 6, read-out: AUClast, Mean (SD)): 3380 ng·h/mL; Cmax ([2]; 25 mg, 25 mg single dose, N = 6, read-out: Cmax, Geometric mean (CV)): 79.9 ng/mL; Cmax ([2]; 25 mg, 25 mg single dose, N = 6, read-out: Cmax, Mean (SD)): 84.4 ng/mL; Vd/F ([2]; 25 mg, 25 mg single dose, N = 6, read-out: Vss/F, Geometric mean (CV)): 228 L; Vd/F ([2]; 25 mg, 25 mg single dose, N = 6, read-out: Vss/F, Mean (SD)): 240 L; half-life ([2]; 25 mg, 25 mg single dose, N = 6, read-out: t1/2, Geometric mean (CV) (converted)): 29.8 h; half-life ([2]; 25 mg, 25 mg single dose, N = 6, read-out: t1/2, Mean (SD) (converted)): 30.2 h; Tmax ([2]; 50 mg single dose): 4 h
